Molecule `COc1ccc(C(=O)Nc2cc(NC(=O)c3ccc(OCCN4CCCC4)cc3)ccc2C)cc1OC` showed a melting point of 258 to 259 °C.

On to `COC(=O)[C@H]1C=C(c2ccccc2)OC(=O)[C@H]1Cc1ccccc1`, for which the melting point is 105 to 106 °C.

Molecule `CC(=O)OC(C)c1ccc(-c2ccc(OCc3ccccc3)cc2)cc1` (single isomer, unassigned; (+)) had a melting point of 137 °C.

The molecule `ClCc1ccc(-c2nc3cccc(Cl)c3o2)cc1` displayed a melting point of 92 to 93 °C.

`COc1ccccc1C1(C(C)(C)O)CCN(C)CC1` registered a melting point of 110 to 111 °C.

Take `COC1CN(C(=O)c2cc(-c3cccc(Cl)c3)c(=O)[nH]c2-c2c(Cl)cccc2C#N)C1`: the melting point was 239 to 243 °C.

In turn, `Cc1ccc(C(=O)c2cc(-c3ccccc3)c(N3CCOCC3)s2)cc1` returned a melting point of 198 °C.

Take `O=S(=O)(c1ccc(Br)s1)N1CCN(c2ccc(F)cc2)CC1`: the melting point was in the range of 123 to 124 °C.

Turning to `O=C1NC(c2ccccc2)(c2ccccc2)C(=O)N1CCl`, the melting point lay within 161 to 162 °C.

With `CC(C)c1c(C(=O)Nc2ccccc2)c(-c2ccccc2)c(-c2ccc(F)cc2)n1CCCC(O)C(O)CC(=O)N(c1ccccc1)c1ccccc1` (stereo unspecified), the melting point lay in the range of 228 to 233 °C.

Regarding `Cc1nc(N)sc1S(=O)(=O)N(CCO)CCO`, the melting point stood at 141 °C.

As to `CCOC(=O)C(C(=O)OCC)C(=O)C(C)Oc1cc(Cl)c(Cl)cc1Cl` (stereo unspecified), the melting point was in the range of 62 to 66 °C.

Take `CCCCn1ncc(/C=C(\Cc2cc3c(cc2OC)OCO3)C(=O)O)c1-c1ccc(OC)cc1OCc1ccccc1C(=O)O`: the melting point lay in the range of 213 to 214 °C.

The molecule `CNC(=S)NS(=O)(=O)c1cc(CCNC(=O)/C=C/c2cccs2)ccc1OCc1ccccc1` yielded a melting point of 94 °C.

`CCC=Cc1nc2ccccc2n1Cc1ccc(C#N)cc1` gave a melting point of 125 °C.

`COc1nc(OC)nc(-n2c(N)nc3cc(Cl)ccc32)n1`: the melting point was in the range of 293 to 296 °C.

`CCC(CC)(OC)c1ccc(Cl)c2nc3n(c12)CCCN3c1ccc(Cl)cc1C(F)(F)F` displayed a melting point of 172 to 173 °C.

In turn, `CCCc1c(OCCCCCCc2cccc(O)c2O)ccc(C(=O)O)c1OC(C)=O` gave a melting point of 130 to 132 °C.

Regarding `O=C(NC1CCN(C/C=C\CC(c2ccccc2)c2ccccc2)CC1)c1ccccc1Oc1ccccc1`, the melting point fell in the range of 91 to 94 °C.

Take `COc1ccc(CNC(=O)c2cc3c(=O)n(CC#Cc4ccccc4)c(=O)n(C)c3s2)cc1`: the melting point was 168 to 171 °C.

On to `C#CCn1c(-c2ccccc2)nc(C=C)c(CC)c1=O`, for which the melting point fell in the range of 113 to 115 °C.

For the molecule `COCCN1CC(=O)C(C#N)=C1C#N`, the melting point fell in the range of 108 to 110 °C.

Take `CCCCCS(=O)(=O)NC(=O)c1ccc2sc(C)c(Cc3ccc(Cl)cc3Cl)c2c1`: the melting point lay within 158 to 159 °C.

The molecule `COc1cccc(CNC(=O)c2cc3ccccc3c(=O)[nH]2)c1` yielded a melting point of 206 to 210 °C.

Turning to `Cc1c(C)c2c(c(C)c1O)CCC(C)(C#N)O2` (stereo unspecified), the melting point fell in the range of 149 to 151 °C.

In the case of `N#Cc1c(OCCN2CCOCC2)cccc1Oc1ccc(-c2cn(C3CCOCC3)c3ncnc(N)c23)cc1`, the melting point came to 110 °C.

Turning to `CC(=O)Nc1ccc2oc(=O)[nH]c2c1`, the melting point was in the range of 295 to 300 °C.

In the case of `O=C(N[C@H](CCCO)c1nc(-c2ccccc2)c(-c2ccccc2)o1)OCc1ccccc1`, the melting point was 72.3 to 75.1 °C.

`CC(=O)Oc1ccc(P(c2ccccc2)c2ccc(OC(C)=O)cc2)cc1` returned a melting point of 118 to 120 °C.

For the molecule `CN(C)C(=O)c1ccccc1CS(N)(=O)=O`, the melting point is 149 to 154 °C.

Molecule `O=C1Nc2cc(F)ccc2C12COc1cc3c(cc12)CCO3` (stereo unspecified) gave a melting point of 249 to 251 °C.

Molecule `COc1ccc(C2=NN(CC(=O)c3ccc4ccccc4c3)C(=O)[C@H]3CCCC[C@@H]23)cc1OC` (relative stereo) returned a melting point of 89 to 90 °C.

For `O=C(Nc1cccc2c(=O)cc(-c3nnnn3O)oc12)c1ccc(OCCCCc2ccccc2)cc1`, the melting point lay in the range of 238 to 240 °C.

With `Nc1nc(OC2CCC2)c2ncn(C3CC(F)C(CO)O3)c2n1` (stereo unspecified), the melting point was in the range of 139 to 140 °C.

Molecule `O=C(O)CCCCOc1ccc2nc3[nH]c(=O)[nH]c3cc2c1` had a melting point of 317 to 318 °C.

The molecule `COc1ccc(CC2SC(=O)NC2=O)c2c1N(CC(=O)O)C(=O)CC2` (stereo unspecified) yielded a melting point of 251 to 255 °C.

`CCOC(=O)c1cn2c3c(c(F)c(F)c(F)c3c1=O)CCN2C` came in with a melting point of 236 to 240 °C.

`O=S(=O)(NC1Cc2ccc(CCO)cc2C1)c1ccc(Cl)cc1` (stereo unspecified) yielded a melting point of 71 to 76 °C.

`CCOC(=O)Cc1cc(OC)c(OC(C)=O)c(C2(OC(C)=O)C(=O)c3ccccc3C2=O)c1`: the melting point was in the range of 102 to 107 °C.

The molecule `CN(C)c1ccc(S(=O)c2ccccc2)cc1N` (stereo unspecified) gave a melting point of 85 to 86 °C.

`CN(C)C=CC(=O)c1cncnc1`: the melting point was 133 to 135 °C.

In the case of `Cc1cccc(N2CCN(Cc3n[nH]c4ccccc34)CC2)c1`, the melting point lay within 132 to 134 °C.

In the case of `O=C(c1cccc(C(=O)c2ccc(F)c([N+](=O)[O-])c2)c1)c1ccc(F)c([N+](=O)[O-])c1`, the melting point lay in the range of 148 to 149 °C.

Turning to `COC(=O)[C@@H]1C[C@H](O)C(=O)[C@@H]2[C@@]3(C)C[C@@H](c4ccoc4)OC(=O)[C@H]3CC[C@]21C`, the melting point was 211 to 214 °C.

In turn, `NC(=O)CCSSCCC(N)=O` came in with a melting point of 100 to 101 °C.

`COc1cc(-c2ccccc2)nc(SCC(=O)O)n1` came in with a melting point of 157 to 159 °C.

For `Cc1cc(-n2ccc(OCCC3CC3)cc2=O)sc1C(=O)NCc1ccccc1`, the melting point was 134 to 136 °C.

Molecule `CCNC(=O)C(C)(C)c1ccc(C(=O)Nc2cn3cc(Cl)ccc3n2)cc1` came in with a melting point of 228 to 230 °C.

Consider `CN(C)c1ccc(-c2c(O)c3ccc(Cl)cc3[nH]c2=O)cc1`, for which the melting point was more than 300 °C.

With `Cc1cc(-c2noc(CS(C)(=O)=O)n2)ccc1Br`, the melting point fell in the range of 130 to 132 °C.

`COC(=O)C(=C\c1c(OC)cc(OC)cc1OC)/C(=C\c1ccccc1)C(=O)O` yielded a melting point of 208 to 210 °C.

For the molecule `O=C(O)c1cc(F)ccc1S`, the melting point was determined as 185 °C.

Molecule `CCCC(O)c1cccc(NC(=O)OCc2ccccc2)c1` (stereo unspecified) showed a melting point of 103 to 106 °C.

Consider `COc1cc(CN/C=C2\C(=O)NC(=O)c3ccc(-c4ccc(Cl)cc4)cc32)cc(O)c1OC`, for which the melting point was in the range of 240 to 241 °C.

As for `O=C(c1ccccc1)N1CCc2[nH]c3c(cnc4cc(Cl)ccc43)c2C1`, the melting point turned out to be 275 °C.

In turn, `CC(C)c1cc(-c2ccc(F)c3ccccc23)nc(NS(C)(=O)=O)n1` displayed a melting point of 276 to 277 °C.

With `O=C(O)CCC/C=C\[C@@H]1C[C@@H](NS(=O)(=O)c2ccc(Cl)cc2)CN1S(=O)(=O)c1ccc(Cl)cc1`, the melting point is 111 to 113 °C.

Molecule `Nc1cccc(OCc2csc(-c3ccccc3)n2)c1` showed a melting point of 75 to 80 °C.

`COC(=O)c1c(Cl)cc(Cl)cc1NC(=O)CSc1ccc(NCc2ccc(Cl)cc2)cc1`: the melting point was in the range of 96 to 98 °C.

Turning to `CCN1C(=O)CCCc2c(OC)ccc(Nc3ncc(Cl)c(Nc4ccc(N5CCOCC5)cc4OC)n3)c21`, the melting point was in the range of 218 to 220 °C.

Consider `CC(C)(c1ccc(O)cc1)c1ccc(-c2ccc(C(C)(C)c3ccc(O)cc3)cc2)cc1`, for which the melting point fell in the range of 195 to 196 °C.

Source of the values: a melting point compilation (Tetko et al.; mined from patent text by program, amines drawn as free bases though some values may be those of a salt).
